Reference: patent publication US11530199B2, “Analogs for the treatment of disease” (Insilico Medicine IP Limited, priority 2021, dated 2022)

Experiment: Metabolic stability in human liver microsomes;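 further: NADPH-supplemented incubation in 100 mM potassium phosphate buffer, compound loss sampled at 0, 5, 10, 20, 30 and 60 min by LC-MS/MS, first-order kinetics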
Assay type: in vitro ADME
Settings: LM Clint; human liver microsomes 0.5 mg protein/mL, test compound 1 μM, 37° C., up to 60 min

Human Liver Microsome (μM/min/mg)	Structure (SMILES)
++ (10-100 μM/min/mg as ++)	CC(C)n1cnc(-c2ccc(F)c(F)c2)c1-c1nc(C(=O)Nc2ccc(N3CCN(CCO)CC3)cc2)c[nH]1 [Compound 146, 5′-(3,4-difluorophenyl)-N-(4-(4-(2-hydroxyethyl)piperazin-1-yl)phenyl)-3′-isopropyl-1H,3′H-[2,4′-biimidazole]-4-carboxamide]
++ (10-100 μM/min/mg as ++)	CN1CCN(c2ccc(NC(=O)c3c[nH]c(-c4c(-c5ccc(F)cc5)ncn4C(F)F)n3)cc2)CC1 [Compound 130, 3′-(difluoromethyl)-5′-(4-fluorophenyl)-N-(4-(4-methylpiperazin-1-yl)phenyl)-1H,3′H-[2,4′-biimidazole]-4-carboxamide]
+ (>100 μM/min/mg as)	CC(C)n1cnc(-c2ccc(F)cc2)c1-c1ccc(C(=O)Nc2ccc(N3CCN(C)CC3)cc2)o1 [Compound 121, 5-(4-(4-fluorophenyl)-1-isopropyl-1H-imidazol-5-yl)-N-(4-(4-methylpiperazin-1-yl)phenyl)furan-2-carboxamide]
+ (>100 μM/min/mg as)	CC(C)n1cnc(-c2ccc(F)cc2)c1-c1cccc(C(=O)Nc2ccc(N3CCN(CCO)CC3)cc2)n1 [Compound 128]
+++ (1-10 μM/min/mg as +++)	CC(C)n1cnc(-c2ccc(F)cc2)c1-c1nc(C(=O)Nc2ccc(N(CCO)CCO)cc2)c[nH]1 [Compound 116, N-(4-(bis(2-hydroxyethyl)amino)phenyl)-5′-(4-fluorophenyl)-3′-isopropyl-1H,3′H-[2,4′-biimidazole]-4-carboxamide]
+ (>100 μM/min/mg as)	CC(C)n1cnc(-c2ccc(F)cc2)c1-c1cccc(C(=O)Nc2ccc(N3CCN(C)CC3)cc2)n1 [Compound 127]
+++ (1-10 μM/min/mg as +++)	CC(C)n1cnc(-c2ccc(F)cc2)c1-c1nc(C(=O)Nc2ccc(CCC(=O)O)cc2)c[nH]1 [Compound 102, 3-(4-(5′-(4-fluorophenyl)-3′-isopropyl-1H,3′H-[2,4′-biimidazole]-4-carboxamido)phenyl)propanoic acid]
++ (10-100 μM/min/mg as ++)	CC(C)n1cnc(-c2ccc(F)cc2)c1-c1nc(C(=O)Nc2ccc(N3CCN(C(N)=O)CC3)cc2)c[nH]1 [Compound 99, N-(4-(4-carbamoylpiperazin-1-yl)phenyl)-5′-(4-fluorophenyl)-3′-isopropyl-1H,3′H-[2,4′-biimidazole]-4-carboxamide]
+++ (1-10 μM/min/mg as +++)	CC(C)n1cnc(-c2ccc(F)cc2)c1-c1nc(C(=O)Nc2ccc(C(=O)O)cc2)c[nH]1 [Compound 113, 4-(5′-(4-fluorophenyl)-3′-isopropyl-1H,3′H-[2,4′-biimidazole]-4-carboxamido)benzoic acid]
++ (10-100 μM/min/mg as ++)	CC(C)n1cnc(-c2ccc(F)cc2)c1-c1nc(C(=O)Nc2ccc(N3CCN(CCO)CC3)cc2)c[nH]1 [Compound 117, 5′-(4-fluorophenyl)-N-(4-(4-(2-hydroxyethyl)piperazin-1-yl)phenyl)-3′-isopropyl-1H,3′H-[2,4′-biimidazole]-4-carboxamide]
++ (10-100 μM/min/mg as ++)	O=C(Nc1ccc(N2CCNCC2)cc1)c1c[nH]c(-c2c(-c3ccc(F)cc3)ncn2CC(F)(F)F)n1 [Compound 167, 5′-(4-fluorophenyl)-N-(4-(piperazin-1-yl)phenyl)-3′-(2,2,2-trifluoroethyl)-1H,3′H-[2,4′-biimidazole]-4-carboxamide]
+++ (1-10 μM/min/mg as +++)	CC(C)n1cnc(-c2ccc(F)cc2)c1-c1cccc(C(=O)Nc2ccc(CCC(=O)O)cc2)n1 [Compound 131]
++ (10-100 μM/min/mg as ++)	CN1CCN(c2ccc(NC(=O)c3c[nH]c(-c4c(-c5ccc(F)cc5)ncn4C)n3)cc2)CC1 [Compound 119, 5′-(4-fluorophenyl)-3′-methyl-N-(4-(4-methylpiperazin-1-yl)phenyl)-1H,3′H-[2,4′-biimidazole]-4-carboxamide]
+++ (1-10 μM/min/mg as +++)	CC(C)n1cnc(-c2ccc(Cl)cc2)c1-c1nc(C(=O)Nc2ccc(CCC(=O)O)cc2)c[nH]1 [Compound 137, 3-(4-(5′-(4-chlorophenyl)-3′-isopropyl-1H,3′H-[2,4′-biimidazole]-4-carboxamido)phenyl)propanoic acid]
++ (10-100 μM/min/mg as ++)	CN1CCN(c2ccc(NC(=O)c3c[nH]c(-c4c(-c5ccc(F)cc5)ncn4CC(F)(F)F)n3)cc2)CC1 [Compound 120, 5′-(4-fluorophenyl)-N-(4-(4-methylpiperazin-1-yl)phenyl)-3′-(2,2,2-trifluoroethyl)-1H,3′H-[2,4′-biimidazole]-4-carboxamide]
+++ (1-10 μM/min/mg as +++)	CN1CCN(c2ccc(NC(=O)c3c[nH]c(-c4c(-c5ccc(F)cc5)ncn4C4CCC(O)CC4)n3)cc2)CC1 (stereo not shown) [Compound 172]
+ (>100 μM/min/mg as)	CC(C)n1cnc(-c2ccc(C(F)(F)F)cc2)c1-c1nc(C(=O)Nc2ccc(N3CCN(C)CC3)cc2)c[nH]1 [Compound 142, 3′-isopropyl-N-(4-(4-methylpiperazin-1-yl)phenyl)-5′-(4-(trifluoromethyl)phenyl)-1H,3′H-[2,4′-biimidazole]-4-carboxamide]
+++ (1-10 μM/min/mg as +++)	O=C(Nc1ccc(N2CCN(CCO)CC2)cc1)c1c[nH]c(-c2c(-c3ccc(F)cc3)ncn2[C@H]2CC[C@H](O)CC2)n1 [Compound 158, 5′-(4-fluorophenyl)-3′-((1r,4r)-4-hydroxycyclohexyl)-N-(4-(4-(2-hydroxyethyl)piperazin-1-yl)phenyl)-1H,3′H-[2,4′-biimidazole]-4-carboxamide]
++ (10-100 μM/min/mg as ++)	CC(C)n1cnc(-c2ccc(F)c(F)c2)c1-c1nc(C(=O)Nc2ccc(N3CCN(C)CC3)cc2)c[nH]1 [Compound 156, 5′-(3,4-difluorophenyl)-3′-isopropyl-N-(4-(4-methylpiperazin-1-yl)phenyl)-1H,3′H-[2,4′-biimidazole]-4-carboxamide]
+ (>100 μM/min/mg as)	CC(C)n1cnc(-c2ccc(F)cc2)c1-c1ccc(C(=O)Nc2ccc(CCO)cc2)o1 [Compound 126, 5-(4-(4-fluorophenyl)-1-isopropyl-1H-imidazol-5-yl)-N-(4-(2-hydroxyethyl)phenyl)furan-2-carboxamide]
++ (10-100 μM/min/mg as ++)	CC(C)n1cnc(-c2ccc(Cl)cc2)c1-c1nc(C(=O)Nc2ccc(N3CCN(CCO)CC3)cc2)c[nH]1 [Compound 139, 5′-(4-chlorophenyl)-N-(4-(4-(2-hydroxyethyl)piperazin-1-yl)phenyl)-3′-isopropyl-1H,3′H-[2,4′-biimidazole]-4-carboxamide]
++ (10-100 μM/min/mg as ++)	CC(C)n1cnc(-c2ccc(F)cc2)c1-c1nc(C(=O)Nc2ccc(N3CCNCC3)cc2)c[nH]1 [Compound 181, 5′-(4-fluorophenyl)-3′-isopropyl-N-(4-(piperazin-1-yl)phenyl)-1H,3′H-[2,4′-biimidazole]-4-carboxamide]
++ (10-100 μM/min/mg as ++)	CN1CCN(c2ccc(NC(=O)c3c[nH]c(-c4c(-c5ccc(F)cc5)ncn4[C@H]4CC[C@H](O)CC4)n3)cc2)CC1 [Compound 159, 5′-(4-fluorophenyl)-3′-((1r,4r)-4-hydroxycyclohexyl)-N-(4-(4-methylpiperazin-1-yl)phenyl)-1H,3′H-[2,4′-biimidazole]-4-carboxamide]
+++ (1-10 μM/min/mg as +++)	CC(C)n1cnc(-c2ccc(F)cc2)c1-c1nc(C(=O)Nc2ccc(CCCCC(=O)O)cc2)c[nH]1 [Compound 132, 5-(4-(5′-(4-fluorophenyl)-3′-isopropyl-1H,3′H-[2,4′-biimidazole]-4-carboxamido)phenyl)pentanoic acid]
+ (>100 μM/min/mg as)	CN1CCN(c2ccc(NC(=O)c3c[nH]c(-c4c(-c5ccc(F)cc5)ncn4CC(C)(C)C)n3)cc2)CC1 [Compound 135, 5′-(4-fluorophenyl)-N-(4-(4-methylpiperazin-1-yl)phenyl)-3′-neopentyl-1H,3′H-[2,4′-biimidazole]-4-carboxamide]
++ (10-100 μM/min/mg as ++)	CC(C)n1cnc(-c2ccc(F)cc2)c1-c1nc(C(=O)Nc2ccc(CCO)cc2)c[nH]1 [Compound 111, 5′-(4-fluorophenyl)-N-(4-(2-hydroxyethyl)phenyl)-3′-isopropyl-1H,3′H-[2,4′-biimidazole]-4-carboxamide]
+ (>100 μM/min/mg as)	CC(C)n1cnc(-c2ccc(F)cc2)c1-c1nc(C(=O)Nc2ccc(N3CCN(S(N)(=O)=O)CC3)cc2)c[nH]1 [Compound 97, 5′-(4-fluorophenyl)-3′-isopropyl-N-(4-(4-sulfamoylpiperazin-1-yl)phenyl)-1H,3′H-[2,4′-biimidazole]-4-carboxamide]
+++ (1-10 μM/min/mg as +++)	C[N+]1([O-])CCN(c2ccc(NC(=O)c3c[nH]c(-c4c(-c5ccc(F)cc5)ncn4CC(F)(F)F)n3)cc2)CC1 [Compound 166, 4-(4-(5′-(4-fluorophenyl)-3′-(2,2,2-trifluoroethyl)-1H,3′H-[2,4′-biimidazole]-4-carboxamido)phenyl)-1-methylpiperazine 1-oxide]
